ChEMBL document CHEMBL6083262, “Stereorandomized Oncocins with Preserved Ribosome Binding and Antibacterial Activity” (J Med Chem, 2024)
In brackets after ≈: the same amount, converted by molar mass. Positions of bridges follow the written chain, without caps; N, C: chain ends. Non-standard residues stand in square brackets, D forms with d. Residues, ends and D or L forms follow the SMILES beside them. *: point of attachment. X1 = CC[C@H](C)CCCCC(=O)*; Orn = NCCC[C@H](N)C(=O)O; Dab = NCC[C@H](N)C(=O)O

Columns and labels:
[1] = system: Escherichia coli; assay: Antimicrobial activity against Escherichia coli W3110 incubated for 16 to 20 hrs in full muller hinton medium by broth microdilution method; assay type: functional; details: time 16-20 hrs
[2] = system: Klebsiella pneumoniae; assay: Antimicrobial activity against Klebsiella pneumoniae NCTC 418 incubated for 16 to 20 hrs in full muller hinton medium by broth microdilution method; assay type: functional; details: time 16-20 hrs
[3] = system: Pseudomonas aeruginosa; assay: Antimicrobial activity against Pseudomonas aeruginosa PAO1 incubated for 16 to 20 hrs in full muller hinton medium by broth microdilution method; assay type: functional; details: time 16-20 hrs
[4] = system: Acinetobacter baumannii; assay: Antimicrobial activity against Acinetobacter baumannii ATCC 19606 incubated for 16 to 20 hrs in full muller hinton medium by broth microdilution method; assay type: functional; details: time 16-20 hrs
[5] = system: Staphylococcus aureus; assay: Antimicrobial activity against methicillin-resistant Staphylococcus aureus COL incubated for 16 to 20 hrs in full muller hinton medium by broth microdilution method; assay type: functional; details: time 16-20 hrs
[6] = system: Escherichia coli; assay: Antimicrobial activity against Escherichia coli W3110 incubated for 16 to 20 hrs in 12.5 % muller hinton medium by broth microdilution method; assay type: functional; details: time 16-20 hrs
[7] = system: Klebsiella pneumoniae; assay: Antimicrobial activity against Klebsiella pneumoniae NCTC 418 incubated for 16 to 20 hrs in 12.5 % muller hinton medium by broth microdilution method; assay type: functional; details: time 16-20 hrs
[8] = system: Pseudomonas aeruginosa; assay: Antimicrobial activity against Pseudomonas aeruginosa PAO1 incubated for 16 to 20 hrs in 12.5 % muller hinton medium by broth microdilution method; assay type: functional; details: time 16-20 hrs
[9] = system: Acinetobacter baumannii; assay: Antimicrobial activity against Acinetobacter baumannii ATCC 19606 incubated for 16 to 20 hrs in 12.5 % muller hinton medium by broth microdilution method; assay type: functional; details: time 16-20 hrs
[10] = system: Staphylococcus aureus; assay: Antimicrobial activity against methicillin-resistant Staphylococcus aureus COL incubated for 16 to 20 hrs in 12.5 % muller hinton medium by broth microdilution method; assay type: functional; details: time 16-20 hrs
[11] = Hemolytic activity in human RBC incubated for 4 hrs; assay type: toxicity, cell-based; details: erythrocyte
[12] = system: Pseudomonas aeruginosa; assay: Antibacterial activity against multidrug-resistant Pseudomonas aeruginosa PA14 incubated for 16 to 20 hrs in full muller hinton medium by broth microdilution method; assay type: functional; details: time 16-20 hrs
[13] = system: Pseudomonas aeruginosa; assay: Antibacterial activity against multidrug-resistant Pseudomonas aeruginosa PA14 incubated for 16 to 20 hrs in 12.5 % muller hinton medium by broth microdilution method; assay type: functional; details: time 16-20 hrs
[14] = system: Pseudomonas aeruginosa; assay: Antibacterial activity against multidrug-resistant Pseudomonas aeruginosa PA14 4.13 harboring phoQ mutant incubated for 16 to 20 hrs in full muller hinton medium by broth microdilution method; assay type: functional; details: time 16-20 hrs
[15] = system: Pseudomonas aeruginosa; assay: Antibacterial activity against multidrug-resistant Pseudomonas aeruginosa PA14 4.13 harboring phoQ mutant incubated for 16 to 20 hrs in 12.5 % muller hinton medium by broth microdilution method; assay type: functional; details: time 16-20 hrs
[16] = system: Pseudomonas aeruginosa; assay: Antibacterial activity against multidrug-resistant Pseudomonas aeruginosa PA14 4.18 harboring pmrB mutant incubated for 16 to 20 hrs in full muller hinton medium by broth microdilution method; assay type: functional; details: time 16-20 hrs
[17] = system: Pseudomonas aeruginosa; assay: Antibacterial activity against multidrug-resistant Pseudomonas aeruginosa PA14 4.18 harboring pmrB mutant incubated for 16 to 20 hrs in 12.5 % muller hinton medium by broth microdilution method; assay type: functional; details: time 16-20 hrs
[18] = system: Pseudomonas aeruginosa; assay: Antibacterial activity against multidrug-resistant Pseudomonas aeruginosa PA14 2P4 harboring pmrB mutant incubated for 16 to 20 hrs in full muller hinton medium by broth microdilution method; assay type: functional; details: time 16-20 hrs
[19] = system: Pseudomonas aeruginosa; assay: Antibacterial activity against multidrug-resistant Pseudomonas aeruginosa PA14 2P4 harboring pmrB mutant incubated for 16 to 20 hrs in 12.5 % muller hinton medium by broth microdilution method; assay type: functional; details: time 16-20 hrs
[20] = system: Pseudomonas aeruginosa; assay: Antibacterial activity against multidrug-resistant Pseudomonas aeruginosa clinical isolate ZEM-1A incubated for 16 to 20 hrs in full muller hinton medium by broth microdilution method; assay type: functional; details: time 16-20 hrs
[21] = system: Pseudomonas aeruginosa; assay: Antibacterial activity against multidrug-resistant Pseudomonas aeruginosa clinical isolate ZEM-1A incubated for 16 to 20 hrs in 12.5 % muller hinton medium by broth microdilution method; assay type: functional; details: time 16-20 hrs
[22] = system: Pseudomonas aeruginosa; assay: Antibacterial activity against multidrug-resistant Pseudomonas aeruginosa clinical isolate ZEM9A incubated for 16 to 20 hrs in full muller hinton medium by broth microdilution method; assay type: functional; details: time 16-20 hrs
[23] = system: Pseudomonas aeruginosa; assay: Antibacterial activity against multidrug-resistant Pseudomonas aeruginosa clinical isolate ZEM9A incubated for 16 to 20 hrs in 12.5 % muller hinton medium by broth microdilution method; assay type: functional; details: time 16-20 hrs
[24] = system: Klebsiella pneumoniae; assay: Antibacterial activity against multidrug-resistant Klebsiella pneumoniae clinical isolate OXA-48 incubated for 16 to 20 hrs in full muller hinton medium by broth microdilution method; assay type: functional; details: time 16-20 hrs
[25] = system: Klebsiella pneumoniae; assay: Antibacterial activity against multidrug-resistant Klebsiella pneumoniae clinical isolate OXA-48 incubated for 16 to 20 hrs in 12.5 % muller hinton medium by broth microdilution method; assay type: functional; details: time 16-20 hrs
[26] = system: Enterobacter cloacae; assay: Antibacterial activity against multidrug-resistant Enterobacter cloacae incubated for 16 to 20 hrs in full muller hinton medium by broth microdilution method; assay type: functional; details: time 16-20 hrs
[27] = system: Enterobacter cloacae; assay: Antibacterial activity against multidrug-resistant Enterobacter cloacae incubated for 16 to 20 hrs in 12.5 % muller hinton medium by broth microdilution method; assay type: functional; details: time 16-20 hrs

SMILES: CC[C@H](C)[C@H](NC(=O)[C@H](CCCN)NC(=O)[C@H](CCCNC(=N)N)NC(=O)[C@@H]1CCCN1C(=O)[C@@H]1CCCN1C(=O)[C@H](CCCNC(=N)N)NC(=O)[C@@H]1CCCN1C(=O)[C@H](CCCNC(=N)N)NC(=O)[C@@H]1CCCN1C(=O)[C@H](CC(C)C)NC(=O)[C@H](Cc1ccc(O)cc1)NC(=O)[C@@H]1CCCN1C(=O)[C@@H]1CCCN1C(=O)[C@H](CCCCN)NC(=O)[C@H](CC(=O)O)NC(=O)[C@@H](N)C(C)C)C(=O)N[C@@H](Cc1ccc(O)cc1)C(=O)N[C@@H](CC(N)=O)C(=O)N[C@@H](CCCN)C(N)=O (H-VDKPPYLPRPRPPR[Orn]IYN[Orn]-NH2)
- MIC [1]: 8 µg/mL (≈ 3.47 µM)
- MIC [2]: 8 µg/mL (≈ 3.47 µM)
- MIC [3]: > 64 µg/mL
- MIC [4]: 64 µg/mL (≈ 27.8 µM)
- MIC [5]: > 64 µg/mL
- MIC [6]: 2 µg/mL (≈ 0.867 µM)
- MIC [7]: 4 µg/mL (≈ 1.73 µM)
- MIC [8]: 16 µg/mL (≈ 6.94 µM)
- MIC [9]: 8 µg/mL (≈ 3.47 µM)
- MIC [10]: > 64 µg/mL
- MHC [11]: > 1000 µg/mL
- MIC [12]: > 32 µg/mL
- MIC [13]: 32 µg/mL (≈ 13.9 µM)
- MIC [14]: > 32 µg/mL
- MIC [15]: 32 µg/mL (≈ 13.9 µM)
- MIC [16]: > 32 µg/mL
- MIC [17]: 32 µg/mL (≈ 13.9 µM)
- MIC [18]: > 64 µg/mL
- MIC [19]: 16 µg/mL (≈ 6.94 µM)
- MIC [20]: > 64 µg/mL
- MIC [21]: 16 µg/mL (≈ 6.94 µM)
- MIC [22]: > 64 µg/mL
- MIC [23]: 32 µg/mL (≈ 13.9 µM)
- MIC [24]: 64 µg/mL (≈ 27.8 µM)
- MIC [25]: 2 µg/mL (≈ 0.867 µM)
- MIC [26]: 32 µg/mL (≈ 13.9 µM)
- MIC [27]: 1 µg/mL (≈ 0.434 µM)

SMILES: CC(C)CCCCC(=O)N[C@@H](CCN)C(=O)N[C@H](C(=O)N[C@@H](CCN)C(=O)N[C@H]1CCNC(=O)[C@H]([C@@H](C)O)NC(=O)[C@H](CCN)NC(=O)[C@H](CCN)NC(=O)[C@H](CC(C)C)NC(=O)[C@@H](Cc2ccccc2)NC(=O)[C@H](CCN)NC1=O)[C@@H](C)O.CC[C@H](C)CCCCC(=O)N[C@@H](CCN)C(=O)N[C@H](C(=O)N[C@@H](CCN)C(=O)N[C@H]1CCNC(=O)[C@H]([C@@H](C)O)NC(=O)[C@H](CCN)NC(=O)[C@H](CCN)NC(=O)[C@H](CC(C)C)NC(=O)[C@@H](Cc2ccccc2)NC(=O)[C@H](CCN)NC1=O)[C@@H](C)O (X1-[Dab]T[Dab][Dab][Dab][dF]L[Dab][Dab]T; lactam 4-C)
- MIC [1]: 0.25 µg/mL
- MIC [2]: 0.5 µg/mL
- MIC [3]: 0.5 µg/mL
- MIC [4]: 0.25 µg/mL
- MIC [5]: > 16 µg/mL
- MIC [6]: 0.2 µg/mL
- MIC [7]: 1 µg/mL
- MIC [8]: 1 µg/mL
- MIC [9]: 0.5 µg/mL
- MIC [10]: 16 µg/mL
- MIC [12]: > 0.5 µg/mL
- MIC [13]: 1 µg/mL
- MIC [14]: 2 µg/mL
- MIC [15]: 2 µg/mL
- MIC [16]: 2 µg/mL
- MIC [17]: 1 µg/mL
- MIC [18]: 4 µg/mL
- MIC [19]: 1 µg/mL
- MIC [20]: 16 µg/mL
- MIC [21]: 8 µg/mL
- MIC [22]: > 64 µg/mL
- MIC [23]: 2 µg/mL
- MIC [24]: 1 µg/mL
- MIC [25]: 1 µg/mL
- MIC [26]: 2 µg/mL
- MIC [27]: 1 µg/mL
